Measured values taken from patent US9939451B2, “Biomarker for detecting white matter stroke, containing toll-like receptor 2, and medical use of toll-like receptor 2” (AJOU UNIVERSITY INDUSTRY—ACADEMIC COOPERATION FOUNDATION, priority 2013, dated 2018).

Key:
[1] = system: primary OL (oligodendrocyte) cultures exposed to oxygen-glucose deprivation; experiment: TUNEL staining of OGD-induced OL death; assay type: cell-based, mouse; settings: Pam3CSK4 1 μg/ml added after 2 hours OGD; FIG. 5
Procedure: (§1) Primary OL cultures were prepared from cortices of newborn C57BL/6 on postnatal day 0 (P0) to postnatal day 1 (P1), and/or TLR2 (−/−) mouse, according to the method reported in Journal of Visualized Experiment by O'Meara R. After 9-10 days in vitro, confluent mixed glial cultures were obtained. The mixed glial cultures were shaken at a temperature of about 37° C. for about 1 hour at a speed of about 200 rpm, so as to remove microglia. Afterwards, a second cycle of shaking was then performed at a temperature of about 37° C. for about 18 hours at a speed of about 250 rpm, so as to remove OLs from astrocyte monolayer. The cell suspensions obtained therefrom was plated on a bacterial grade Petri dish for about 1 hour to separate OLs from remaining microglia and astrocytes. Purified OLs were plated on a poly-D-lysine coated 12 well (1.5×10^5 cells/well) or 96 well (1.5×10^4 cells/well) or on a 9 mm coverslip (1.0×10^4 cells/coverslip).
For OGD challenge, the purified OLs were cultured for about 1 day in a serum-free differentiation medium, washed with PBS three times, and then, transferred to an anaerobic chamber (Forma Scientific, Marietta, Ohio). […] The cells were exposed to OGD for about 2 hours, and then, transferred to a normoxic chamber. […]

[2] = system: primary OL (oligodendrocyte) cultures exposed to oxygen-glucose deprivation; experiment: LDH assay of OGD-induced OL death; assay type: cell-based, mouse
Procedure: as §1, with “Purified OLs were plated on a poly-D-lysine coated 12 well (1.5×10^5 cells/well) or 96 well (1.5×10^4 cells/well) or on a 9 mm coverslip (1.0×10^4 cells/coverslip).” left out
For quantification of OGD-induced OL death, LDH assay was performed using an assay kit (Takara Bio, Inc., Madison, Wis.) to measure LDH generated in a bathing medium in association with damaged OL at 24 hours after the onset of OGD challenge. The LDH level corresponding to typical cell death was determined in sister cultures exposed 1.5% Triton X-100 for 24 hours (complete cell death, CD). Baseline (BL) LDH levels were determined in a condition of only medium without OLs. Percentage of cell death in each experimental condition was calculated using a following formula. {% of OL death=(experimental value−BL)×100/(CD−BL)}

Substance: Pam3CSK4
- OGD-induced OL death (TUNEL staining) [1]: reduced the extent of OGD-induced OL death
- OGD-induced OL death (LDH release) ([2]; Pam3CSK4 1 μg/ml added after 2 hours OGD, LDH measured 24 hours after onset of OGD, FIG. 3): reduced the extent of OGD-induced OL death
- OGD-induced OL death (summary statement) ([2]; TLR2 agonist applied after OGD to OLs cultured from WT mouse, readout not given): substantially reduced OGD-induced OL death
